Results on one compound are retold here after patent publication US20150313913A1, “POSITIVE ALLOSTERIC MODULATORS OF THE GABA-A RECEPTOR IN THE TREATMENT OF AUTISM” (UNIVERSITY OF WASHINGTON THROUGH ITS CENTER FOR …, priority 2013, published 2015).

“Also recorded” adds a separate entry of the source.

In series [1] the test system is Scn1a+/− mice. As to the kind of experiment: Open field and elevated plus maze tests (sedation, anxiolysis). Type of series: in vivo. The method, then: Open field test was performed as previously described^23. Briefly, each individual mouse was placed near the wall-side of 38×42 cm open-field arena, and the movement of the mouse was recorded by USB webcam (LIFECAM™ HD-6000, MICROSOFT™) and PC-based video capture software (WINAVI VIDEO CAPTURE™, ZJMEDIA DIGITAL TECHNOLOGY™) for 10 min. The recorded video file was further analyzed by off-line video tracking software (ETHOVISION™ XT 7.0, NOLDUS TECHNOLOGY™). Total distance traveled and time in center (15×15 cm imaginary square) were measured. The open field arena was cleaned with 70% ethanol and wiped with paper towels between each trial.
The elevated plus maze is a plus-shaped maze that is elevated 60 cm above the floor. It consists of two closed arms surrounded by 15-cm high transparent walls and two open arms (5×25 cm) with a small ledge along the side of two open arms to prevent falling from the maze during the test. Each mouse was placed in the center (5×5 cm) of the maze facing one of the closed arms. During the 10-min test period, the movement of the mouse was recorded by a USB webcam (LIFECAM™ HD-6000, MICROSOFT™) and PC-based video capture software (WINAVI VIDEO CAPTURE™, ZJ MEDIA DIGITAL TECHNOLOGY™). The recorded video file was further analyzed by off-line video tracking software (ETHOVISION™ XT 7.0). Times spent in closed arms, center, and open arms were measured. The maze was cleaned with 70% ethanol and wiped with paper towels between each trial.
Oral administration is specifically contemplated for the methods described herein, and is well known for both benzodiazepines and non-BDZ GABA-A enhancers as described herein.

The test system of series [2] is Scn1a+/− mice. Briefly: Contextual fear-conditioning test. Type of series: in vivo. The conditions noted are these: single i.p. 0.0625 mg/kg 30 min before training, listed as CLZ. From the text: (§1) The contextual fear-conditioning chamber was a square arena (25×25 cm) with clear PLEXIGLAS™ walls and a metal grid floor connected to a circuit board that delivered shocks to the metal grid (COULBOURN INSTRUMENTS™). An analog camera was attached on top of the chamber. The camera and the circuit board were connected to a personal computer, and its software (FREEZE FRAME™ 2.0, ACTIMETRICS™) controlled the circuit and recorded the data. The chamber was cleaned with 70% ethanol and wiped with paper towels before each session. In the habituation session, a test mouse was placed in the chamber and allowed to explore for 2 min^66-69. Immediately after habituation, the test mouse received a single mild foot shock (2 s, 0.5 mA). After staying in the chamber one more min, the mouse was removed from the chamber. For the 30-min short-term memory test, the mouse was returned to the context 30 min after the end of the training session. […] The movement of mice was also recorded by a USB webcam (LIFECAM™ HD-6000, MICROSOFT™) and PC-based video capture software (WINAVI™ Video Capture, ZJ MEDIA DIGITAL TECHNOLOGY™) for 2 min. The recorded video file was further analyzed by off-line video tracking software (ETHOVISION™ XT 7.0, NOLDUS TECHNOLOGY™). The freezing scores were calculated by dividing the test session into 1 min bouts and averaging together all 2 min for each animal. […]

Series [3] deals with wild-type mice. Briefly: Contextual fear-conditioning test. As to conditions: 0.0625 mg/kg, listed as CLZ. Type of series: in vivo.
Text: as §1

Series [4] deals with BTBR mice. As to the kind of experiment: Elevated plus maze test. Type of series: in vivo. The conditions noted are these: 0.05 mg/kg. As to the method:
(§2) The test was performed as previously described (Han et al., 2012). The maze used in this study has two closed arms (5.1×30 cm) surrounded by 20-cm high non-transparent walls and two open arms (5.1×30 cm). During the 10 min of trial, times spent in closed, center, and open arms, and total distance traveled during the trial were measured by the video-tracking software (EthoVision XT 8.5, Noldus Technology).

Series [5] deals with C57BL/6J mice. As to the kind of experiment: Elevated plus maze test. Type of series: in vivo. The conditions noted are these: low doses of clonazepam. The method, then: as §2
The test system of series [6] is BTBR mice. As to the kind of experiment: Barnes circular maze test. Type of series: in vivo. From the text: (§3) The Barnes circular maze is a planar, round white PLEXIGLAS™ platform (92 cm diameter), 1 m above the floor, with 20 evenly spaced holes (7 cm diameter) located 5 cm from the perimeter. A black escape box (15×7×7 cm) was placed under one hole. Spatial cues with distinct patterns and shapes were placed on the wall of the testing room. A 500 lux light was turned on during the trial. An experimenter remained in the same place with minimal movement throughout the trials. The platform and the escape box were cleaned thoroughly with 70% ethanol and paper towels between each trial to remove olfactory cues. One day before the training trials began, test mice were habituated in the target box for 3 min. The training trials were repeated for 4 consecutive days, and 3 trials were performed each day with 20 min inter-trial intervals. At the beginning of each trial, a test mouse was placed in a cylindrical holding chamber (10 cm diameter) located in the center of the maze. After 10 s of holding time, the mouse was allowed to search for the target hole for 3 min. […] When the mouse entered the escape box, the light was turned off and the mouse remained undisturbed for 1 min. The movement of the mouse was recorded, and the number of errors made and the latency to find the target hole were measured during the training trials by video tracking software. On day 5, the probe trial was performed with each mouse. The escape box was removed, and the test mouse was allowed to find the target hole freely for 90 s. During the probe trial, total distance traveled and the latency to find the target hole were measured. % correct pokes and % time in the target area were also measured.
(§4) The number of errors made and the latency to find the target hole were measured during the 3 min-training trials by video tracking software.
(§5) During the 90 second-probe trial, the latency to find the target hole, % correct pokes, and % time in the target area were measured by the video-tracking software (EthoVision XT 8.5, Noldus Technology).

Series [7] has as its system C57BL/6J mice. As to the kind of experiment: Barnes circular maze test. As to conditions: 0.05 mg/kg. Type of series: in vivo.
Text: as §3, §4, §5

The conditions of series [8]: cited from earlier work.

Take `O=C1CN=C(c2ccccc2Cl)c2cc([N+](=O)[O-])ccc2N1` [Clonazepam]: in series [1] (0.0625 mg/kg), the “anxiolytic effect in elevated plus maze” value is on record as “did not elicit anxiolytic effects”, the “anxiolytic effect in open field test” value is on record as “not observed” and the “locomotor activity in open field test” value is “not changed”. For the same compound, the sedation result in series [1] (both wild-type and Scn1a+/− mice, dose series) was “dose-dependent sedation”. Further, the “maximal intraperitoneal dose that did not cause significant sedation or anxiolytic effect” value in series [1] (open field and elevated plus maze, Scn1a+/− mice) is listed as 0.0625 mg/kg. Moreover, the “short-term (30 min) and long-term (24 h) fear-associated contextual memory” value in series [2] is given as “complete reversal; also recorded: complete rescue”. Further, the fear-associated contextual memory result in series [3] is recorded as “unaffected; also recorded: no significant change”. In addition, in series [4], the “time in open arms (indicator of abnormally low anxiety)” value is reported as “changed toward the values for C57BL/6J mice”. Moreover, in series [4] (BTBR and C57BL/6J mice (FIG. 43I)), the “sedation (total distance moved during elevated plus maze)” value is listed as “did not cause sedation; also recorded: without sedation”. The “anxiety-like behavior: avoidance of the open arms” value in series [5] is recorded as “little effect”. The “spatial learning during training sessions (latency, errors)” value in series [6] (0.05 mg/kg) is “significantly improved”. Besides, the “spatial memory in probe trials” value in series [6] (single low dose 30 min prior) is listed as “increased”. In series [7], the “learning performance and spatial memory” value was “regardless of clonazepam treatment; also recorded: significantly worsened”. Also, the half-life (commonly the time in which the quantity being followed falls by half) in series [8] (in vivo) is 30 to 40 h. In series [8] (mouse washout experiment), the half-life in vivo is 12 h.
